According to PubChem BioAssay (NCI):
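Each compound was tested at five concentrations against cells in 96-well plates for 48 hours. GI50 is the concentration that inhibits growth by half. TGI: total growth inhibition.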

Assays:
Experiment in all cases: NCI tumour cell line growth inhibition, 48 h
HOP-18 NSCLC = test system: HOP-18 NSCLC
LXFL 529 NSCLC = test system: LXFL 529 NSCLC
RXF-631 renal = test system: RXF-631 renal
XF 498 CNS = test system: XF 498 CNS
P388 leukemia = test system: P388 leukemia
P388/ADR leukemia = test system: P388/ADR leukemia
SN12K1 renal = test system: SN12K1 renal

SMILES | TGI (HOP-18 NSCLC) | TGI (LXFL 529 NSCLC) | TGI (RXF-631 renal) | TGI (XF 498 CNS) | TGI (P388 leukemia) | TGI (P388/ADR leukemia) | TGI (SN12K1 renal) | further results
Clc1c(Cl)c2c(Cl)c(Cl)c1C[P+](c1ccccc1)(c1ccccc1)CC[P+](c1ccccc1)(c1ccccc1)Cc1c(Cl)c(Cl)c(c(Cl)c1Cl)C[P+](c1ccccc1)(c1ccccc1)CC[P+](c1ccccc1)(c1ccccc1)C2 | 20.6 µM | 8.12 µM | 23.7 µM | – | – | – | – | –
CC#C[I+]c1ccccc1 | 34.4 µM | 27.1 µM | > 100 µM | 33.5 µM | – | – | – | –
CCCCCCCCCCCCCCCCOCC(COP(=O)([O-])OCC[N+](C)(C)C)OCCCCCCCCCCCCCCCC (configuration not stated) | > 100 µM | – | – | > 100 µM | > 100 µM | > 100 µM | > 100 µM | –
O=[N+]([O-])O.[Ga] | > 9360 µM | – | – | – | > 10000 µM | > 3030 µM | 6000 µM | GI50 (HOP-18 NSCLC): 5210 µM; GI50 (P388 leukemia): 1680 µM; GI50 (P388/ADR leukemia): 712 µM; GI50 (SN12K1 renal): 1210 µM
CCO[C@]12C[C@H](OC)[C@@]3(O)CC(C1[C@H]3O)C13C4C2[C@H](OC)C1[C@](COC)(CN4CC)[C@H](O)C[C@@H]3OC (some centres not stated) | – | > 100 µM | – | – | – | – | – | –
CC(C)n1c2c([n+](C)c1/C=C/c1ccccc1)C(=O)c1ccccc1C2=O | – | 0.788 µM | – | – | – | – | – | –
